Measurements taken from PMC5213647, “Honokiol as a specific collagen receptor glycoprotein VI antagonist on human platelets: Functional ex vivo and in vivo studies” (Scientific Reports, 2017).

Target: T1, collagen receptor glycoprotein VI (GP VI) (Homo sapiens, UniProt Q9HCN6)
T1 construct: gene GP6; native full-length receptor, captured from total human platelet lysate by immobilised anti-GP VI mAb on SPR chip; described as 60-65 kDa type I transmembrane glycoprotein
T1 sequence (Q9HCN6 21-339): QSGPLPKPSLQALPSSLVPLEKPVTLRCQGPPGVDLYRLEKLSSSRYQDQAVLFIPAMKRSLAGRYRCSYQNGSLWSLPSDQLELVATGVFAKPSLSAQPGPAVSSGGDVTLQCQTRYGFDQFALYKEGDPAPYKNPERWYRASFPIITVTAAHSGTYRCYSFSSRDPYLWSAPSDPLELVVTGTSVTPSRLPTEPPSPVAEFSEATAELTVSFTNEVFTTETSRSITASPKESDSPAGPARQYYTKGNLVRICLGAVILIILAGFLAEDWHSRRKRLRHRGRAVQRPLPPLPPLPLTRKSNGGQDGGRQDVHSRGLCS
Assay: SPR (ProteOn XPR36), GP VI captured by immobilised anti-GP VI mAb, kinetic […] Langmuir fit
Assay type: binding
Settings: PBS with 0.005% Tween 20, pH 7.4, 25 °C; native GP VI captured from platelet lysate; analyte only 10 and 100 μM

Kd: 289 µM
Compound: C=CCc1ccc(O)c(-c2ccc(O)c(CC=C)c2)c1 [Honokiol]
